Results published in patent US10053477B2, “Spirocyclic aryl phosphorus oxide and aryl phosphorus sulfide” (QILU PHARMACEUTICAL CO., LTD., priority 2014, dated 2018).

Tests used:
[1] = target: T1, ALK wild-type (Homo sapiens, UniProt Q9UM73); test: ALK wild-type enzymatic inhibition (HTRF); format: biochemical; conditions: 30 μM ATP
T1 construct: purchased Carna Biosciences (Japan)
Protocol: (§1) Enzyme: ALK wild-type, ALK C1156Y and ALK L1196M supplied by Carna Biosciences (Japan), EGFR T790M/L858R supplied by Life technology (Madison, Wis.).
(§2) HTRF kit: supplied by Cis-Bio International, with Eu-marked TK1 antibody, XL665- and biotin-labelled TK1 polypeptide substrates.
10 μl wild-type ALK enzyme reaction mixture system: 0.5 nM wild-type ALK, 1 μM biotin-TK1 peptide, 30 μM ATP. Reaction buffer: 50 mM Hepes (pH7.5), 10 mM MgCl2, 0.01 mM NaV3VO4.
(§3) Incubation was carried out for 60 minutes at room temperature. Detection was by Envision.

[2] = target: T2, ALK L1196M (Homo sapiens, UniProt Q9UM73, L1196M); test: ALK L1196M enzymatic inhibition (HTRF); format: biochemical; conditions: 30 μM ATP
T2 construct: purchased Carna Biosciences (Japan)
Protocol: as §1, §2
Reaction buffer: 50 mM Hepes (pH7.5), 10 mM MgCl2, 0.01 mM NaV3VO4.
as §3

[3] = target: T3, ALK C1156Y (Homo sapiens, UniProt Q9UM73, C1156Y); test: ALK C1156Y enzymatic inhibition (HTRF); format: biochemical; conditions: 30 μM ATP
T3 construct: purchased Carna Biosciences (Japan)
Protocol: as §1, §2
Reaction buffer: 50 mM Hepes (pH7.5), 10 mM MgCl2, 0.01 mM NaV3VO4. […] Reaction was reacted at room temperature for 60 minutes.
as §3

[4] = target: T4, EGFR T790M/L858R (Homo sapiens, UniProt P00533, L858R/T790M); test: EGFR T790M/L858R enzymatic inhibition (HTRF); format: biochemical; conditions: 20 μM ATP
T4 construct: purchased Life technology (Madison, Wis.)
Protocol: as §1, §2
The compound to be tested is diluted at a gradient by 3 times thereby giving 11 gradients starting from […] to 0.017 nM for the final concentration.
10 μl EGFR T790M/L858R enzyme reaction mixture system: 0.08 nM EGFR T790M/L858R, 1 μM biotin-TK1 peptide, 20 μM ATP. Reaction buffer: 50 mM Hepes (pH7.5), 10 mM MgCl2, 0.01 mM NaV3VO4. The reaction plate was white Proxiplate 384-Plus plate (PerkinElmer). Reaction was reacted at room temperature for 60 minutes.
Detecting reaction: 10 μl testing reagent was added to the reaction plate, the final concentration of Antibody was 2 nM, XL665 was 62.5 nM. Incubation was carried out for 60 minutes at room temperature. Detection was by Envision.

[5] = system: LU-01-0015 xenotransplantation (PDX) from lung cancer patients; test: In vivo efficacy, LU-01-0015 xenotransplantation (PDX) from lung cancer patients; design: species or system BALB/c nude mice; conditions: 25 mg/kg orally everyday
From the text: BALB/c nude mice, female, 6 to 8 weeks, about 18 to 22 g bodyweight, was kept in a special environment without pathogens, and a single ventilated cage (5 mice per cage). Beddings and water in all the cages were disinfected before use. […] 80 mice were supplied by Shanghai BK Laboratory Animal Co., LTD for study. Each mouse was subcutaneously implanted tumor tissue (20-30 mm^3) at right flank for growth of tumor. When the average tumor volume reached about 250-300 mm^3, the assay started. Test compounds were delivered orally everyday, 25 mg/kg. Tumor size was measured with two-dimensional caliper every 3 days, size was recorded by mm^3, and calculated by the following formula: V=V=0.5a×b2, where a and b are respectively the long diameter and short diameter length of the tumor. The antitumor efficacy was determined by dividing the average increased tumor volume in compound-treated animal by the average increased tumor volume in untreated animal.

T2 sequence (Q9UM73 19-1620 L1196M): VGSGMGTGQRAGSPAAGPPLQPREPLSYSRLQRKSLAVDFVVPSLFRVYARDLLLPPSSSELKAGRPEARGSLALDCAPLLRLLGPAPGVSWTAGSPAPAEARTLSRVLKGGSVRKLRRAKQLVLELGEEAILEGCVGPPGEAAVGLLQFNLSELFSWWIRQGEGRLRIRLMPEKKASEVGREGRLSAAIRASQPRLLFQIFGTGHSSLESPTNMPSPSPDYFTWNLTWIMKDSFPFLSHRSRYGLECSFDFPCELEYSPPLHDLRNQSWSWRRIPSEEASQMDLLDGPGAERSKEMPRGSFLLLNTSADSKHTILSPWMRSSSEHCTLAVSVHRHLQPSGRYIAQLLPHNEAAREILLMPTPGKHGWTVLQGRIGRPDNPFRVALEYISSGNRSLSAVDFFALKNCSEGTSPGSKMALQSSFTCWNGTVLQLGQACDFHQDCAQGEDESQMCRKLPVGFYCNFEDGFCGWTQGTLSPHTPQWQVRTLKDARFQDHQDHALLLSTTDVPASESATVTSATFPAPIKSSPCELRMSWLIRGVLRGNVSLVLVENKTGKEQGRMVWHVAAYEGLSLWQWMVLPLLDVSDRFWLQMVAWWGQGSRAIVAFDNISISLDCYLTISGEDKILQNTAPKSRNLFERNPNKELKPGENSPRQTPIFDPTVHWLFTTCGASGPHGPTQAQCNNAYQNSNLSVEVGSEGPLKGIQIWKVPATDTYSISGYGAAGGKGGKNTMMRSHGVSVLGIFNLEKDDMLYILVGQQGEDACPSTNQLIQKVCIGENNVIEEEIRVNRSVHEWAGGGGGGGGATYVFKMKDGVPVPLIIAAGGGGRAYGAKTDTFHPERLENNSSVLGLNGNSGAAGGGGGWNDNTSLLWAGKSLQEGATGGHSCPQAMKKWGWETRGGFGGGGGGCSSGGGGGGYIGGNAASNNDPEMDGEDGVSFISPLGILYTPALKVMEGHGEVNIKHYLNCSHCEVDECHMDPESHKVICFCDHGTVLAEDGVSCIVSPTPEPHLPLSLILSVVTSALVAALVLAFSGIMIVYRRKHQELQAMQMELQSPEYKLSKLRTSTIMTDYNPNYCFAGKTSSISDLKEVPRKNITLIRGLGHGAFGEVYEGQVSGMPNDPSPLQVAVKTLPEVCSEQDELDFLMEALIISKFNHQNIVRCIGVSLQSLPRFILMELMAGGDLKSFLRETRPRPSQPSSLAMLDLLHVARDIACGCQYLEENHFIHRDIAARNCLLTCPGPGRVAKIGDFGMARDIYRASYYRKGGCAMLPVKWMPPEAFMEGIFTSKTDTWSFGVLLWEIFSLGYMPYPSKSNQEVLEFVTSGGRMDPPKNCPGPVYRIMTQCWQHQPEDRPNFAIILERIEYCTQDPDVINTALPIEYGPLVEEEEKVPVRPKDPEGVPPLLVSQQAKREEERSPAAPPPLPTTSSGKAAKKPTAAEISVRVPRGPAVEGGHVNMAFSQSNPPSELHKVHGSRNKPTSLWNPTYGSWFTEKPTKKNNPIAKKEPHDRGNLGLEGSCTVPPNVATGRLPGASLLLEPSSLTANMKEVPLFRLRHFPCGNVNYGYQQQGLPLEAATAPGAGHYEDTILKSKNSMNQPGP
T1 sequence (Q9UM73 19-1620): as the sequence (Q9UM73 19-1620 L1196M) above, with M1178L counted along it
T3 sequence (Q9UM73 19-1620 C1156Y): as the sequence (Q9UM73 19-1620 L1196M) above, with C1138Y, M1178L counted along it
T4 sequence (P00533 25-1210 T790M/L858R): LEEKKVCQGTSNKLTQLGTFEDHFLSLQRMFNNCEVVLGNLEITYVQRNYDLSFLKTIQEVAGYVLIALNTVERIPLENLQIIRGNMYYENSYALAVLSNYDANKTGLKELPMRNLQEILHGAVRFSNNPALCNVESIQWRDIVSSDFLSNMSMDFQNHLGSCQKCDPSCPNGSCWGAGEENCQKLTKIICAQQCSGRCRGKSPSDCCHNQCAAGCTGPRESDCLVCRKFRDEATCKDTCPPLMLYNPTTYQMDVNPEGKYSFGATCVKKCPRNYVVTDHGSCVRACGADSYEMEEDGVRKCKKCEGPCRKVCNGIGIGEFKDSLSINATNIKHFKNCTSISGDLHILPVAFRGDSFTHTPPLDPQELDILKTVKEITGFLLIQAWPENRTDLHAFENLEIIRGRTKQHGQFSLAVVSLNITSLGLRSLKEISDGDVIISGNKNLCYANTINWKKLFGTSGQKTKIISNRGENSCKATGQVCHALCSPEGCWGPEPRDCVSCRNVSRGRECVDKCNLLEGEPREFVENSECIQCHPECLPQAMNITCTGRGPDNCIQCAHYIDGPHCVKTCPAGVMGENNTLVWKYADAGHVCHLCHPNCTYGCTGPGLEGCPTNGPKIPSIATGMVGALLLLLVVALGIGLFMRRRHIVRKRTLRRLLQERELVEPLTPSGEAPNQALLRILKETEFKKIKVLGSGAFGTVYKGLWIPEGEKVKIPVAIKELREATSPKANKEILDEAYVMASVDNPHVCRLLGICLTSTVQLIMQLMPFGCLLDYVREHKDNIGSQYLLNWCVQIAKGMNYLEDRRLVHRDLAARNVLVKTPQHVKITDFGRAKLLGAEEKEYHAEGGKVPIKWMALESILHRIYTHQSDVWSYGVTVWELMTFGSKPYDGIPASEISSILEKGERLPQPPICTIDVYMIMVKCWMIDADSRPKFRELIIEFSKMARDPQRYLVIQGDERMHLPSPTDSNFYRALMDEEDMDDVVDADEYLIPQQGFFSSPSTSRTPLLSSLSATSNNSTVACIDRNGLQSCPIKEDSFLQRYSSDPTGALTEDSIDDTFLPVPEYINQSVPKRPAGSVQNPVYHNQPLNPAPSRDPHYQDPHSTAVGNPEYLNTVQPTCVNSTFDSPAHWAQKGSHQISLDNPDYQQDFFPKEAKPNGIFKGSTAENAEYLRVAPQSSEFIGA

Structure (SMILES)	IC50 [1]	IC50 [2]	IC50 [3]	IC50 [4]	Tumor volume ([5]; 3 days)	Tumor volume ([5]; 6 days)	Tumor volume ([5]; 9 days)	Tumor volume ([5]; 12 days)	Tumor volume ([5]; 16 days)	Tumor volume ([5]; 19 days)	Tumor volume ([5]; 23 days)
COc1cc(N2CCC3(CC2)CN(C)C3)ccc1Nc1ncc(Cl)c(Nc2ccccc2P(C)(C)=O)n1 [Compound 5, (2-((5-Chloro-2-((2-methoxy-4-(2-methyl-2,7-diazaspiro[3.5]nonan-7-yl)phenyl)amino)pyrimidin-4-yl)amino)phenyl)dimethyl phosphine oxide]	1 to 100 nM	1 to 100 nM	1 to 100 nM	1 to 100 nM	259 mm^3	214 mm^3	172 mm^3	117 mm^3	104 mm^3	123 mm^3	124 mm^3
COc1cc(N2CCC3(CCC(N(C)C)CC3)CC2)ccc1Nc1ncc(Cl)c(Nc2ccccc2P(C)(C)=O)n1 [Compound 14, (2-((5-Chloro-2-((4-(9-(dimethylamino)-3-azaspiro[5.5]undecan-3-yl)-2-methoxyphenyl)amino)pyrimidin-4-yl)amino)phenyl)dimethyl phosphine oxide]	1 to 100 nM	1 to 100 nM	1 to 100 nM	1 to 100 nM							
COc1cc(N2CCC3(CCN(C)CC3)CC2)ccc1Nc1ncc(C(F)(F)F)c(Nc2ccccc2P(C)(C)=O)n1 [Compound 15, (2-((2-((2-Methoxy-4-(9-methyl-3,9-diazaspiro[5.5]undecan-3-yl)phenyl)amino)-5-(trifluoromethyl)pyrimidin-4-yl)amino)phenyl)dimethyl phosphine oxide]	> 1000 nM	101 to 1000 nM	> 1000 nM	> 1000 nM							
COc1cc(N2CCC3(CCN(C)CC3)CC2)ccc1Nc1ncnc(Nc2ccccc2P(C)(C)=O)n1 [Compound 16, (2-((4-((2-Methoxy-4-(9-methyl-3,9-diazaspiro[5.5]undecan-3-yl)phenyl)amino)-1,3,5-triazin-2-yl)amino)phenyl)dimethyl phosphine oxide]	101 to 1000 nM	101 to 1000 nM	101 to 1000 nM	1 to 100 nM							
COc1cc(N2CCC3(CCN(C)CC3)CC2)ccc1Nc1nc(Nc2ccccc2P(C)(C)=O)c2cc[nH]c2n1 [Compound 17, (2-((2-(amino)-7H-pyrrolo[2,3-D](2-methoxy-4-(9-methyl-3,9-diazaspiro[5.5]undecan-3-yl)phenyl)pyrimidin-4-yl)amino)phenyl)dimethyl phosphine oxide]	1 to 100 nM	1 to 100 nM	1 to 100 nM	1 to 100 nM							
COc1cc(N2CCC3(CCN(C)CC3)CC2)ccc1Nc1ncc(Cl)c(N(C)c2ccccc2P(C)(C)=O)n1 [Compound 18, (2-((5-Chloro-2-((2-methoxy-4-(9-methyl-3,9-diazaspiro[5.5]undecan-3-yl)phenyl)amino)pyrimidin-4-yl)(methyl)amino)phenyl)dimethyl phosphine oxide]	> 1000 nM	> 1000 nM	> 1000 nM	> 1000 nM							
COc1cc(N2CCC3(CCN(C)CC3)CC2)ccc1Nc1ncc(Cl)c(Oc2ccccc2P(C)(C)=O)n1 [Compound 19, (2-((5-Chloro-2-((2-methoxy-4-(9-methyl-3,9-diazaspiro[5.5]undecan-3-yl)phenyl)amino)pyrimidin-4-yl)oxy)phenyl)dimethyl phosphine oxide]	> 1000 nM	> 1000 nM	> 1000 nM	> 1000 nM							
COc1cc(N2CCC3(CCN(C)CC3)CC2)c(Br)cc1Nc1ncc(Cl)c(Nc2ccccc2P(C)(C)=O)n1 [Compound 21, (2-((2-((5-Bromo-2-methoxy-4-(9-methyl-3,9-diazaspiro[5.5]undecan-3-yl)phenyl)amino)-5-chloropyrimidin-4-yl)amino)phenyl)dimethyl phosphine oxide]	1 to 100 nM	1 to 100 nM	1 to 100 nM	1 to 100 nM							
COc1cc(N2CCC3(CCN(C)CC3)CC2)ncc1Nc1ncc(Cl)c(Nc2ccccc2P(C)(C)=O)n1 [Compound 24, (2-((5-Chloro-2-((4-methoxy-6-(9-methyl-3,9-diazaspiro[5.5]undecan-3-yl)pyridin-3-yl)amino)pyrimidin-4-yl)amino)phenyl)dimethyl phosphine oxide]	1 to 100 nM	1 to 100 nM	1 to 100 nM	101 to 1000 nM							
CN1CCC2(CCC(c3ccc(Nc4ncc(Cl)c(Nc5ccccc5P(C)(C)=O)n4)c(OC(F)F)c3)CC2)CC1 [Compound 28, (2-((5-Chloro-2-((2-(difluoromethoxy)-4-(3-methyl-3-azaspiro[5.5]undecan-9-yl)phenyl)amino)pyrimidin-4-yl)amino)phenyl)dimethyl phosphine oxide]	1 to 100 nM	1 to 100 nM	1 to 100 nM	1 to 100 nM							
COc1cc(C2CC3(CCN(C)CC3)C2)c(F)cc1Nc1ncc(Cl)c(Nc2ccccc2P(C)(C)=O)n1 [Compound 29, (2-((5-Chloro-2-((5-fluoro-2-methoxy-4-(7-methyl-7-azaspiro[3.5]nonan-2-yl)phenyl)amino)pyrimidin-4-yl)amino)phenyl)dimethyl phosphine oxide]	1 to 100 nM	1 to 100 nM	1 to 100 nM	1 to 100 nM							
